Assay results reported in PubChem BioAssay AID248 (DTP/NCI, 2004).
Values joined by “and” are separate entries in the source; they are usually repeats but may differ in a detail not shown here. Equal values may be shown once. Toxic doses and inconclusive results are not listed.

Test system: L1210 leukemia ip in BDF1 mice, survival T/C
Test: NCI In Vivo Anticancer Drug Screen. Data for tumor model L1210 Leukemia (intraperitoneal) in B6D2F1 (BDF1) mice
Settings: endpoint: mean survival time, higher = longer survival
Method in brief: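 Ratio derived from survival: compound-dosed mice over vehicle-dosed mice, all bearing a transplantable tumor.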

[1] = dose: 100.0 mg/kg/injection, schedule: Q01DX009 (ip), vehicle: saline
[2] = dose: 25.0 mg/kg/injection, schedule: Q01DX009 (ip), vehicle: Klucel (hydroxypropylcellulose) (HPC)
[3] = dose: 50.0 mg/kg/injection, schedule: Q01DX009 (ip), vehicle: Klucel (hydroxypropylcellulose) (HPC)
[4] = dose: 100.0 mg/kg/injection, schedule: Q01DX009 (ip), vehicle: Klucel (hydroxypropylcellulose) (HPC)
[5] = dose: 100.0 mg/kg/injection, schedule: Q04DX003 (ip), vehicle: Klucel (hydroxypropylcellulose) (HPC)
[6] = dose: 200.0 mg/kg/injection, schedule: Q04DX003 (ip), vehicle: Klucel (hydroxypropylcellulose) (HPC)
[7] = dose: 400.0 mg/kg/injection, schedule: Q04DX003 (ip), vehicle: Klucel (hydroxypropylcellulose) (HPC)
[8] = dose: 200.0 mg/kg/injection, schedule: Q01DX009 (ip), vehicle: saline
[9] = dose: 400.0 mg/kg/injection, schedule: Q01DX001 (ip), vehicle: other
[10] = dose: 100.0 mg/kg/injection, schedule: Q04DX003 (ip), vehicle: saline
[11] = dose: 200.0 mg/kg/injection, schedule: Q04DX003 (ip), vehicle: saline
[12] = dose: 400.0 mg/kg/injection, schedule: Q04DX003 (ip), vehicle: saline

In the case of `ClCC1CNC(c2ccccc2)O1` (stereo not given), the T/C (dose: 12.5 mg/kg/injection, schedule: Q04DX003 (ip), vehicle: saline with Tween-80) is reported as 96 % of control, the T/C (dose: 25.0 mg/kg/injection, schedule: Q04DX003 (ip), vehicle: saline with Tween-80) is reported as 101 % of control and the T/C (dose: 50.0 mg/kg/injection, schedule: Q04DX003 (ip), vehicle: saline with Tween-80) is reported as 98 % of control. The T/C (dose: 100.0 mg/kg/injection, schedule: Q01DX001 (ip), vehicle: carboxymethylcellulose (CMC)) was 95 % of control, the T/C (dose: 200.0 mg/kg/injection, schedule: Q01DX001 (ip), vehicle: carboxymethylcellulose (CMC)) was 93 % of control and the T/C (dose: 400.0 mg/kg/injection, schedule: Q01DX001 (ip), vehicle: carboxymethylcellulose (CMC)) was 101 % of control.

`CN1CCN(C(=O)Nc2cccc(Cl)c2Cl)CC1` was tested, and the T/C (dose: 25.0 mg/kg/injection, schedule: Q01DX009 (ip), vehicle: saline) was 92 % of control, the T/C (dose: 50.0 mg/kg/injection, schedule: Q01DX009 (ip), vehicle: saline) was 87 % of control and the T/C [1] was 97 % of control and 102 % of control.

In the case of `CCSCCC(C)(N)C(=O)O` (stereo not given), the T/C (dose: 100.0 mg/kg/injection, schedule: Q04DX002 (ip), vehicle: Klucel (hydroxypropylcellulose) (HPC)) is reported as 97 % of control, the T/C (dose: 200.0 mg/kg/injection, schedule: Q04DX002 (ip), vehicle: Klucel (hydroxypropylcellulose) (HPC)) is reported as 93 % of control and the T/C (dose: 400.0 mg/kg/injection, schedule: Q04DX002 (ip), vehicle: Klucel (hydroxypropylcellulose) (HPC)) is reported as 89 % of control.

For `Cc1ccc(C(C)C)cc1NC(=O)c1c(Cl)c(Cl)c(Cl)c(Cl)c1C(=O)O`, the T/C [2] was 108 % of control, the T/C [3] was 91 % of control and the T/C [4] was 103 % of control and 90 % of control.

For `CCCCCCCCCCCCCCCC(=O)Nc1cccc2cnccc12`, the T/C [5] was 100 % of control, the T/C [6] was 97 % of control and the T/C [7] was 105 % of control.

`CCCSc1nc(N)nc2nc[nH]c12` was tested, and the T/C (dose: 1.25 mg/kg/injection, schedule: Q01DX Z (ip), vehicle: carboxymethylcellulose (CMC)) was 91 % of control, the T/C (dose: 2.5 mg/kg/injection, schedule: Q01DX Z (ip), vehicle: carboxymethylcellulose (CMC)) was 114 % of control and the T/C (dose: 2.9 mg/kg/injection, schedule: Q01DX Z (ip), vehicle: carboxymethylcellulose (CMC)) was 114 % of control. The T/C (dose: 4.4 mg/kg/injection, schedule: Q01DX Z (ip), vehicle: carboxymethylcellulose (CMC)) was 116 % of control, the T/C (dose: 5.0 mg/kg/injection, schedule: Q01DX Z (ip), vehicle: carboxymethylcellulose (CMC)) was 118 % of control and the T/C (dose: 8.3 mg/kg/injection, schedule: Q01DX009 (ip), vehicle: saline) was 102 % of control. The T/C (dose: 12.0 mg/kg/injection, schedule: Q01DX009 (ip), vehicle: saline) was 105 % of control, the T/C (dose: 20.0 mg/kg/injection, schedule: Q01DX Z (ip), vehicle: carboxymethylcellulose (CMC)) was 151 % of control and 168 % of control and the T/C (dose: 29.0 mg/kg/injection, schedule: Q01DX009 (ip), vehicle: Klucel (hydroxypropylcellulose) (HPC)) was 121 % of control. The T/C (dose: 40.0 mg/kg/injection, schedule: Q01DX Z (ip), vehicle: carboxymethylcellulose (CMC)) was 150 % of control and 153 % of control and 156 % of control, the T/C (dose: 62.0 mg/kg/injection, schedule: Q01DX001 (ip), vehicle: other) was 108 % of control and the T/C (dose: 62.0 mg/kg/injection, schedule: Q## X001 (ip), vehicle: other) was 119 % of control. For the same molecule, the T/C (dose: 90.0 mg/kg/injection, schedule: Q01DX Z (ip), vehicle: carboxymethylcellulose (CMC)) was 105 % of control, the T/C (dose: 125.0 mg/kg/injection, schedule: Q01DX001 (ip), vehicle: other) was 118 % of control and 88 % of control and the T/C (dose: 125.0 mg/kg/injection, schedule: Q## X001 (ip), vehicle: other) was 123 % of control. For the same molecule, the T/C (dose: 135.0 mg/kg/injection, schedule: Q01DX Z (ip), vehicle: carboxymethylcellulose (CMC)) was 92 % of control, the T/C (dose: 160.0 mg/kg/injection, schedule: Q01DX Z (ip), vehicle: carboxymethylcellulose (CMC)) was 151 % of control and the T/C [8] was 90 % of control. The T/C (dose: 250.0 mg/kg/injection, schedule: Q01DX001 (ip), vehicle: other) was 120 % of control and 124 % of control, the T/C (dose: 300.0 mg/kg/injection, schedule: Q01DX001 (ip), vehicle: other) was 115 % of control and 118 % of control and the T/C (dose: 300.0 mg/kg/injection, schedule: Q## X001 (ip), vehicle: other) was 117 % of control. For the same molecule, the T/C [9] was 101 % of control, the T/C (dose: 400.0 mg/kg/injection, schedule: Q## X001 (ip), vehicle: other) was 101 % of control and the T/C (dose: 500.0 mg/kg/injection, schedule: Q## X001 (ip), vehicle: other) was 203 % of control.

`CCCN(CCC)P(c1ccccc1)N(CCC)CCC` was tested, and the T/C (dose: 100.0 mg/kg/injection, schedule: Q04DX002 (ip), vehicle: saline with Tween-80) was 93 % of control and the T/C (dose: 200.0 mg/kg/injection, schedule: Q04DX002 (ip), vehicle: saline with Tween-80) was 101 % of control.

With `CNC(=O)CO` the T/C [10] was 98 % of control, the T/C [11] was 103 % of control and the T/C [12] was 92 % of control.

In the case of `CCCCCCCCC(=O)CC`, the T/C [1] is reported as 104 % of control, the T/C [8] is reported as 98 % of control and the T/C (dose: 400.0 mg/kg/injection, schedule: Q01DX009 (ip), vehicle: saline) is reported as 94 % of control.

`O=C(Nc1ccc(C2=NCCN2)cc1)c1cncc(C(=O)Nc2ccc(C3=NCCN3)cc2)n1` was tested, and the T/C (dose: 31.0 mg/kg/injection, schedule: Q01DX Z (ip), vehicle: carboxymethylcellulose (CMC)) was 109 % of control, the T/C (dose: 62.5 mg/kg/injection, schedule: Q01DX Z (oral), vehicle: water) was 94 % of control and the T/C (dose: 125.0 mg/kg/injection, schedule: Q01DX Z (ip), vehicle: carboxymethylcellulose (CMC)) was 168 % of control. For the same molecule, the T/C (dose: 125.0 mg/kg/injection, schedule: Q01DX Z (oral), vehicle: water) was 100 % of control, the T/C (dose: 250.0 mg/kg/injection, schedule: Q01DX Z (ip), vehicle: carboxymethylcellulose (CMC)) was 227 % of control and the T/C (dose: 250.0 mg/kg/injection, schedule: Q01DX Z (oral), vehicle: water) was 97 % of control. For the same molecule, the T/C (dose: 500.0 mg/kg/injection, schedule: Q01DX Z (oral), vehicle: water) was 97 % of control.

With `Cc1cc(C)[n+]2ccccc2n1` the T/C (dose: 75.0 mg/kg/injection, schedule: Q01DX001 (ip), vehicle: saline) was 102 % of control and the T/C (dose: 150.0 mg/kg/injection, schedule: Q01DX001 (ip), vehicle: saline) was 98 % of control.

With `CCCCN1c2ccccc2NP1(=O)c1ccccc1` (stereo not given) the T/C (dose: 100.0 mg/kg/injection, schedule: Q04DX003 (ip), vehicle: saline with Tween-80) was 94 % of control, the T/C (dose: 200.0 mg/kg/injection, schedule: Q04DX003 (ip), vehicle: saline with Tween-80) was 96 % of control and the T/C (dose: 400.0 mg/kg/injection, schedule: Q04DX003 (ip), vehicle: saline with Tween-80) was 97 % of control.

`CCN(CC)C(=O)CN` was tested, and the T/C [10] was 103 % of control, the T/C [11] was 100 % of control and the T/C [12] was 103 % of control.

`Cc1cc(C)c(NC(=O)c2c(Cl)c(Cl)c(Cl)c(Cl)c2C(=O)O)c(C)c1` was tested, and the T/C [2] was 102 % of control, the T/C [3] was 105 % of control and the T/C [4] was 94 % of control and 116 % of control.

In the case of `Nc1ccc(S(=O)(=O)c2ccc(N)cc2)cc1`, the T/C (dose: 100.0 mg/kg/injection, schedule: Q01DX001 (ip), vehicle: other) is reported as 100 % of control, the T/C [5] is reported as 96 % of control and the T/C (dose: 200.0 mg/kg/injection, schedule: Q01DX001 (ip), vehicle: other) is reported as 97 % of control. For the same molecule, the T/C [6] was 101 % of control, the T/C [9] was 107 % of control and the T/C [7] was 101 % of control.

With `Cc1ccc(C(=O)/C=C/c2ccc(N(C)C)cc2)cc1` the T/C (dose: 100.0 mg/kg/injection, schedule: Q01DX009 (ip), vehicle: saline with Tween-80) was 90 % of control, the T/C (dose: 200.0 mg/kg/injection, schedule: Q01DX009 (ip), vehicle: saline with Tween-80) was 93 % of control and the T/C (dose: 400.0 mg/kg/injection, schedule: Q01DX009 (ip), vehicle: saline with Tween-80) was 97 % of control.

For `COc1ccc([N+](=O)[O-])cc1NC(=O)CCCCCCCCC(=O)Nc1cc([N+](=O)[O-])ccc1OC`, the T/C (dose: 100.0 mg/kg/injection, schedule: Q04DX002 (ip), vehicle: saline) was 102 % of control, the T/C (dose: 200.0 mg/kg/injection, schedule: Q04DX002 (ip), vehicle: saline) was 102 % of control and the T/C (dose: 400.0 mg/kg/injection, schedule: Q04DX002 (ip), vehicle: saline) was 109 % of control.
